{"source": "patent US20040138160A1", "about": "“Preventive/therapeutic method for cancer” (priority 2001, published 2004)", "key": {"[1]": {"tested_on": "HER2 expression human kidney cancer ACHN cells", "conditions": "renal, HER2 score 1+; dose 20 mg/kg/day orally, divided into two per day, 14 days", "protocol": "(§1) Immediately after transplantation and day 7 after the transplantation, estradiol dipropionate (5 mg/kg solution, 50 μL) was intramuscularly administered to the hind leg with the aim of enhancing the survival rate of the tumor. HER2 expression human non-parvicellular lung cancer A549 cells were suspended in Matrigel solution and 5,000,000 cells were subcutaneously transplanted into the chest of female BALB/c nude mouse (6 weeks of age). HER2 expression human kidney cancer ACHN cells (2,000,000 cells) were subcutaneously transplanted into the chest of nude mouse. HER2 high expression human gastric cancer cells 4-1ST was a in vivo subcultured tumor and seed tumor piece (ca. 50 mm^3) was subcutaneously transplanted into the nude mouse.\n(§2) An increase in the tumor volume from that before administration to that on the next day of the final administration was compared to that of the control group and an anti-tumor effect was studied. In addition, the tumor volume was calculated from the following equation:\n(§3) Formula: tumor volume=longer diameter×shorter diameter×shorter diameter×(1/2)\n(§4) A ratio of the value obtained by subtracting a tumor volume on the day of the administration initiation from the tumor volume on the next day of the completion of the administration in the control group, and the value obtained by subtracting the tumor volume on the day of the administration initiation from the tumor volume on the next day of the completion of the administration was determined as a growth rate (T/C (%))."}, "[2]": {"tested_on": "HER2 high expression human breast cancer cells BT-474", "conditions": "HER2 score 3+, dose 20 mg/kg/day orally, divided into two per day, 14 days", "protocol": "as §1, §2, §3, §4"}, "[3]": {"tested_on": "HER2 high expression human gastric cancer cells 4-1ST", "conditions": "HER2 score 3+, dose 15 mg/kg/day orally, divided into two per day, 14 days", "protocol": "as §1, §2, §3, §4"}, "[4]": {"tested_on": "HER2 expression human non-parvicellular lung cancer A549 cells", "assay": "Anti-tumor effect against HER2 expression tumor in nude mouse: A549", "assay_type": "in vivo", "conditions": "HER2 score 1+, dose 20 mg/kg/day orally, divided into two per day, 14 days", "protocol": "Immediately after transplantation and day 7 after the transplantation, estradiol dipropionate (5 mg/kg solution, 50 μL) was intramuscularly administered to the hind leg with the aim of enhancing the survival rate of the tumor. […] HER2 high expression human gastric cancer cells 4-1ST was a in vivo subcultured tumor and seed tumor piece (ca. 50 mm^3) was subcutaneously transplanted into the nude mouse.\nas §3"}, "[5]": {"biological_target": "EGFR (Homo sapiens, UniProt P00533)", "sequence (P00533 25-1210)": "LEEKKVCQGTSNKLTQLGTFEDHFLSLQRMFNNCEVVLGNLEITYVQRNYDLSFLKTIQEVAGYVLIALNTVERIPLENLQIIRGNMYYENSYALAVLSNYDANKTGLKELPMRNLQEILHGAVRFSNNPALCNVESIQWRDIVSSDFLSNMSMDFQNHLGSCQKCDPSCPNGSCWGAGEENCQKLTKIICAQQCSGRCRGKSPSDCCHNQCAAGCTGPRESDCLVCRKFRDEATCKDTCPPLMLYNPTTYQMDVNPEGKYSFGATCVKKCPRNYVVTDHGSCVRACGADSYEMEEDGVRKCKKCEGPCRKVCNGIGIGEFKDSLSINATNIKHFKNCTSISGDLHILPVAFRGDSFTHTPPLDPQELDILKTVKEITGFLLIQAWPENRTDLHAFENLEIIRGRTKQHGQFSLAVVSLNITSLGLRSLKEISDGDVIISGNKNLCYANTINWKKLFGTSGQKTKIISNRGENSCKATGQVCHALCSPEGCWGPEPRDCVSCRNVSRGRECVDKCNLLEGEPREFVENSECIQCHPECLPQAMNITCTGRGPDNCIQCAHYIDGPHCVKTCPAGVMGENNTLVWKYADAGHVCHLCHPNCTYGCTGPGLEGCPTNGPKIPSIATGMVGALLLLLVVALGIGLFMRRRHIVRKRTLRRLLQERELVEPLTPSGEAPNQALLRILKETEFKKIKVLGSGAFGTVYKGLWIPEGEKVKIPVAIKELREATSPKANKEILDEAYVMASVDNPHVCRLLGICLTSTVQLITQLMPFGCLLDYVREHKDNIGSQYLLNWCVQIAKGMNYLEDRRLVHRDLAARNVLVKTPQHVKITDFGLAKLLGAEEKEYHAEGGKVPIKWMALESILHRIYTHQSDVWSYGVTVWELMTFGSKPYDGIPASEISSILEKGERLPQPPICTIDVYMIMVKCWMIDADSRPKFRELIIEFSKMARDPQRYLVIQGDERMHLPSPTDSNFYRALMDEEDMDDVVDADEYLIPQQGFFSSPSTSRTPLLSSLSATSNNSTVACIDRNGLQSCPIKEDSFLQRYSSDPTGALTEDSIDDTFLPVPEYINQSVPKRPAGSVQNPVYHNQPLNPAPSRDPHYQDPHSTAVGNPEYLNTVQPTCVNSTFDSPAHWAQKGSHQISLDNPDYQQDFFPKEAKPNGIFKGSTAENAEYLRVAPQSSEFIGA", "assay": "cell-based", "protocol": "(§5) For consideration of the action on a receptor-type tyrosine kinase, A-431 cells or NIH3T3 cells were sown in a 24 multi-well plate (2×10^5 cells/well) and cultured overnight in a carbon dioxide gas incubator (5% CO2, 37° C.). The medium was changed to a serum-free medium and the cells were further incubated for one day. […] The culture medium was removed 5 min later and SDS sample buffer was added to give a cell lysate (200 μL). For consideration of the action on a non-receptor type tyrosine kinase, A431 (Jak1), Jurkat (Src) or Namalwa cells (Blk) were sown in a 6-well multi-well plate (5×10^5 cells/well) and cultured overnight in a carbon dioxide gas incubator (5% CO2, 37° C.)."}, "[6]": {"biological_target": "blk (Homo sapiens, UniProt P51451)", "sequence (P51451 whole entry)": "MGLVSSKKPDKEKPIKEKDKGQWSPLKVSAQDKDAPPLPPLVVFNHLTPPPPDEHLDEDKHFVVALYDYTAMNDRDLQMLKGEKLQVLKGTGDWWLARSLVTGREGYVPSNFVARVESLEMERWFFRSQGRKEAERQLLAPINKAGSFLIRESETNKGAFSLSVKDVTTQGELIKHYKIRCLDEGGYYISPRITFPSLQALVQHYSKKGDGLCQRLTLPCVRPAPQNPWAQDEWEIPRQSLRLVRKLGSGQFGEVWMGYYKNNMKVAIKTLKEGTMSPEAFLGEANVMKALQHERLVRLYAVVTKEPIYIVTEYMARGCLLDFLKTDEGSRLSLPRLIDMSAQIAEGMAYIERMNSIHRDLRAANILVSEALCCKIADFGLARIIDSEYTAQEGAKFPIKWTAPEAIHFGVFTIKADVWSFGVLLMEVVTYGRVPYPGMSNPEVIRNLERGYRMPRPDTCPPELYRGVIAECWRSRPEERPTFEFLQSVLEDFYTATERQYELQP", "assay": "cell-based", "protocol": "as §5"}, "[7]": {"biological_target": "Jak1 (Homo sapiens, UniProt P23458)", "sequence (P23458 whole entry)": "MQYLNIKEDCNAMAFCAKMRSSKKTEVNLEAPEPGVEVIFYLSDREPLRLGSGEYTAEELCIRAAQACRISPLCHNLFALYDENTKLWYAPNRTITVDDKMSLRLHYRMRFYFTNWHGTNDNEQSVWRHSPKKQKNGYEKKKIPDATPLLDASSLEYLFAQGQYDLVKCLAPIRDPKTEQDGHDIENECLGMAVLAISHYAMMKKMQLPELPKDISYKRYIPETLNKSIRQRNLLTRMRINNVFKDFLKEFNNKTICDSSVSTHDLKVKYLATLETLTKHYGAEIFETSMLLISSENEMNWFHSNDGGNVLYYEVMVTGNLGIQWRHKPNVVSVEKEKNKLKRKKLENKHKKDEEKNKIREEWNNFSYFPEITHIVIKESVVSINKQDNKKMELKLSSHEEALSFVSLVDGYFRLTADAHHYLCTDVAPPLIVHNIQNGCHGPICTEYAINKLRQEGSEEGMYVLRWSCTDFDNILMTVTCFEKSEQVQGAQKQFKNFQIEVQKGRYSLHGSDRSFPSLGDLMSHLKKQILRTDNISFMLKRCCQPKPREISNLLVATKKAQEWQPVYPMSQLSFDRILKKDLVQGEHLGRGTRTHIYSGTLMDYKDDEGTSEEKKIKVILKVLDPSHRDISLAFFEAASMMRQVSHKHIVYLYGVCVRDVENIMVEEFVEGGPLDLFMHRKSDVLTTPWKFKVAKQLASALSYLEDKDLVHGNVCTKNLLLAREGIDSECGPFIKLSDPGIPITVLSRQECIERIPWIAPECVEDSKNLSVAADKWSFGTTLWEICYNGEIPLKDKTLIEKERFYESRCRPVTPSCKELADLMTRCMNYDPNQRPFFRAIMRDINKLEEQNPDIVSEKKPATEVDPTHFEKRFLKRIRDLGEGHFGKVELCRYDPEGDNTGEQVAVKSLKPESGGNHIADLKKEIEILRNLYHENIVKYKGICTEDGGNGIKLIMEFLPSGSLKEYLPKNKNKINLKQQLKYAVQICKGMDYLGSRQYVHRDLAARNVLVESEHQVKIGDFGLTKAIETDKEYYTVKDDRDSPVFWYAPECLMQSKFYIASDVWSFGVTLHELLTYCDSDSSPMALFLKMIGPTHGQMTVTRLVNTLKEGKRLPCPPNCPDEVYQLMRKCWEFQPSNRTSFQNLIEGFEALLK", "assay": "cell-based", "protocol": "as §5"}, "[8]": {"tested_on": "HER2 expression cells (Ma-46)", "conditions": "cultured 3 days, cells counted", "protocol": "(§6) 1) Cell growth inhibitory action; Each cell line was sown in a 24-well-multi-well plate (5×10^4 cells/well) and cultured overnight in a carbon dioxide gas incubator (5% CO2, 37° C.)."}, "[9]": {"tested_on": "HER2 non-expression cells (Ma-1)", "conditions": "cultured 3 days, cells counted", "protocol": "as §6"}, "[10]": {"tested_on": "HER2/EGF-R co-expression cells (A549)", "conditions": "cultured 3 days, cells counted", "protocol": "as §6"}, "[11]": {"tested_on": "HER2 high expression human breast cancer cell BT-474", "assay": "Anti-tumor effect, combined use (BT-474 cancer-bearing nude mice)", "assay_type": "in vivo, mouse", "text": "Formula: Tumor volume=longer diameter×shorter diameter×shorter diameter×(1/2)"}, "[12]": {"tested_on": "MDA-MB-231", "conditions": "breast, HER2 score 0; dose 20 mg/kg/day orally, divided into two per day, 14 days", "protocol": "as §2, §3, §4"}, "[13]": {"biological_target": "HER2 (Homo sapiens, UniProt P04626)", "sequence (P04626 23-1255)": "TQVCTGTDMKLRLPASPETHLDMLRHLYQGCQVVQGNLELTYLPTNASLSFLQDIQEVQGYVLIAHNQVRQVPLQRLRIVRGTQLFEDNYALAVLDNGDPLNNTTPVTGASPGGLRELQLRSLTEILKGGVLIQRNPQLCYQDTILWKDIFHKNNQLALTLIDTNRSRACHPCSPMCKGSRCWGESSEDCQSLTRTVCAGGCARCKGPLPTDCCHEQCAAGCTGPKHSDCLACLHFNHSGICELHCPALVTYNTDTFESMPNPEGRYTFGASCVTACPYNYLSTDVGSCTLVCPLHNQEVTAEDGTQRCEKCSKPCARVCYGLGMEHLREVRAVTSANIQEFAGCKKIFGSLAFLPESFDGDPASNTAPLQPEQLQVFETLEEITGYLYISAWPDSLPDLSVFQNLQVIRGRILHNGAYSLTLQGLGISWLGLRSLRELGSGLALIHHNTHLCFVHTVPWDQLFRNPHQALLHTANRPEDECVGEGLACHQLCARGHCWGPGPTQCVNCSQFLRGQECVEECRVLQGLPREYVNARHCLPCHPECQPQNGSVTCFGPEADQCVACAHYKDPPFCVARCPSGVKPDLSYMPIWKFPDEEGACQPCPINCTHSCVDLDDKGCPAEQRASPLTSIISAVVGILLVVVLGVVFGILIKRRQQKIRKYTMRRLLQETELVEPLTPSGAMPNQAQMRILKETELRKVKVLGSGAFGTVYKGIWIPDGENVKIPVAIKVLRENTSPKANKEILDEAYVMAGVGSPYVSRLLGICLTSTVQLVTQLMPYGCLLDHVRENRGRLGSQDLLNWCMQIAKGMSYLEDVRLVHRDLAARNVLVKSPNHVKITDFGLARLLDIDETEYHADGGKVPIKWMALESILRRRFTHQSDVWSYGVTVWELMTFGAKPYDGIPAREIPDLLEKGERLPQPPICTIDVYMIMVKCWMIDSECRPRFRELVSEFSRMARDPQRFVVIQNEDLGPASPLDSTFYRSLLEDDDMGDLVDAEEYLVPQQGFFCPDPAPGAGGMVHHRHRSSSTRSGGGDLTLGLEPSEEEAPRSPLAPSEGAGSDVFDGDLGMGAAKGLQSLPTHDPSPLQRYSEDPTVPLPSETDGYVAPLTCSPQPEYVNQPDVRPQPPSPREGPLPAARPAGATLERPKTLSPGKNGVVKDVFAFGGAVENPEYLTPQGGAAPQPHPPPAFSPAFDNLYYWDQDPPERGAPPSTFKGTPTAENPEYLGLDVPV", "conditions": "BT-474 tumor in nude mice; 20 mg/kg/day orally 14 days, then 10 mg/kg; tumor sampled four hours later", "protocol": "Four hours later, the tumor was sampled and a tumor homogenate was prepared."}, "[14]": {"tested_on": "HER2 high expression human breast cancer cells BT-474", "conditions": "1 μmol/L, cultured ~5 days", "protocol": "After the culture, the culture medium was removed and a cell suspension was prepared by a trypsin treatment and the cells were fixed with 70% ethanol. The DNA of the cells was stained with propidium iodide and the DNA amount was measured by a flow cytometer. The cells with a decreased amount of DNA are apoptotic (cell death) cells."}, "[15]": {"tested_on": "Akt", "assay": "cells", "conditions": "Homo sapiens, BT-474, 2 h, read-out: inhibition of activation of Akt (IC50 value)"}, "[16]": {"tested_on": "FGFR", "conditions": "read-out: IC50 (μmol/L) FGFR; NIH3T3 cells, FGF 20 ng/mL; compound 2 hr", "protocol": "as §5"}, "[17]": {"tested_on": "PDGFR", "conditions": "read-out: IC50 (μmol/L) PDGFR; NIH3T3 cells, PDGF 20 ng/mL; compound 2 hr", "protocol": "as §5"}, "[18]": {"tested_on": "tyrosine kinase activity other than HER2", "conditions": "read-out: IC50 value for tyrosine kinase activity other than HER2; in every case (EGFR, FGFR, PDGFR, Jak1, Src, blk)", "protocol": "as §5"}}, "data": [{"smiles": "FC(F)(F)c1ccc(/C=C/c2nc(COc3ccc(CCCCn4ccnn4)cc3)co2)cc1", "note": "[Compound B4, 1-(4-{4-[(2-{(E)-2-[4-(trifluoromethyl)phenyl]ethenyl}-1,3-oxazol-4-yl)methoxy]phenyl}butyl)-1H-1,2,3-triazole]", "values": [{"measurement": "Compound B4 T/C (%), ACHN", "setting": "[1]", "value": "−16", "unit": "%"}, {"measurement": "Compound B4 T/C (%), BT-474", "setting": "[2]", "value": "−18", "unit": "%"}, {"measurement": "Compound B4 T/C (%), 4-1ST", "setting": "[3]", "value": 4, "unit": "%"}, {"measurement": "Compound B4 T/C (%), A549", "setting": "[4]", "value": 22, "unit": "%"}, {"measurement": "IC50", "setting": "[5]", "value": "> 25", "unit": "µM"}, {"measurement": "IC50", "setting": "[6]", "value": "> 25", "unit": "µM"}, {"measurement": "IC50", "setting": "[7]", "value": "> 25", "unit": "µM"}, {"measurement": "cell growth inhibitory action on HER2 expression cells (Ma-46)", "setting": "[8]", "value": "strong cell growth inhibitory action"}, {"measurement": "cell growth inhibitory action on HER2 non-expression cells (Ma-1)", "setting": "[9]", "value": "did not show a cell growth inhibitory action"}, {"measurement": "cell growth inhibitory action on HER2/EGF-R co-expression cells (A549)", "setting": "[10]", "value": "strong cell growth inhibitory action"}, {"measurement": "growth rate T/C (%)", "setting": "[11]; compound B4 20 mg/kg/day orally, divided into two per day, 14 days, trastuzumab 10 mg/kg intraperitoneally twice a week, 2 weeks, or both", "value": "−18", "unit": "%"}, {"measurement": "cases with significant decrease in the tumor volume", "setting": "[11]; same regimens as T/C", "value": "5 cases out of 5 cases"}, {"measurement": "decrease in the tumor volume (% reduction)", "setting": "[11]; same regimens as T/C", "value": "13-30%"}, {"measurement": "Compound B4 T/C (%), MDA-MB-231", "setting": "[12]", "value": 87, "unit": "%"}, {"measurement": "intra-tumor HER2 phosphorylation (per tumor weight), % of the control group", "setting": "[13]", "value": 13, "unit": "%"}, {"measurement": "cell death induction", "setting": "[14]", "value": "induced cell death"}, {"measurement": "IC50", "setting": "[15]", "value": 0.0019, "unit": "µM"}, {"measurement": "IC50", "setting": "[16]", "value": "> 25", "unit": "µmol/L"}, {"measurement": "IC50", "setting": "[17]", "value": "> 25", "unit": "µmol/L"}, {"measurement": "IC50", "setting": "[18]", "value": "> 25", "unit": "µM"}]}]}
